Source: article PMC11930985 (Nature Communications, 2025)

What was measured:
[1] = system: bacterial mutation; settings: ref Investigator's Brochure (IB) version 5.0; cited from earlier work
[2] = biological target: Yes; set-up: method as in Investigator's Brochure (IB) version 5.0; settings: ref Investigator's Brochure (IB) version 5.0; cited from earlier work
[3] = system: AML/MDS patients; assay: ECG QTcF prolongation (Fridericia), graded; assay type: in vivo
Experimental: Electrocardiograms were obtained at screening, Cycle 1 Day 1–4, 8, and 15, Cycle 2 Day 1, 8 and 15, at Day 1 of each cycle thereafter, (up to and including Cycle 15), and at Final Study Visit. QT prolongation was assessed using the Fridericia correction QTcF=QT/RR3 [34]. Severity of QTcF prolongation was defined as follows: Grade 1: maximum prolongation 450–480 ms; Grade 2: maximum prolongation 481-500 ms; Grade 3: ≥501 ms on at least two separate ECGs; Grade 4: ≥501 ms or >60 ms change from baseline, with Torsades de pointes, polymorphic ventricular tachycardia or signs/symptoms of serious arrythmia; Grade 5: Death.

[4] = system: AML/MDS patients; assay: Kaplan-Meier OS, EFS, RFS; assay type: in vivo, human
Experimental: Response assessments (peripheral blood and BM) were performed at Cycle 2 Day 1 (pre-dose), Cycle 4 Day 1 (pre-dose) and repeated every 3 cycles thereafter or when clinically indicated. Patients who completed 12 months of study treatment and had not experienced progressive disease (PD) underwent response assessment every 5 cycles until PD was confirmed. Efficacy endpoints were: Objective response rate (ORR), defined as the number of patients with CR, CRi, MLFS, MR or PR divided by the total number of patients in the cohort/group; Disease control rate (DCR), defined as the number of patients with CR, CRi, MLFS, MR, PR or unchanged disease for at least three cycles (considered to have stable disease (SD)) divided by the total number of patients in the cohort/group; Overall survival (OS), defined as (date of death or censoring) – (date of the first study treatment) +1. Censoring date was the last date the patient was known to be alive; Event free survival (EFS), defined as (earliest of date of death, date of progression or date of censoring) – (date of the first study treatment) +1, with event defined as death or progression. Patients who started a new anti-cancer treatment before documented progression were censored at the date of the last assessment prior to start of non-protocol treatment. […] Patients who were alive without documented progression on the last day of contact were censored at the date of the last assessment.
Analyses were performed on response data, AEs, and PK parameters. Subgroup analysis by sex was not performed due to the small number of patients. Statistical analyses were performed using descriptive statistics. The time-to-event variables RFS, EFS, and OS were analyzed using Kaplan-Meier estimates, and median time-to-event was reported alongside its 95% confidence interval (CI). Where relevant, differences between different subgroups for time-to-event endpoints were assessed using a one-tailed log-rank test.

[5] = biological target: Tie2; set-up: method as in Investigator's Brochure (IB) version 5.0; settings: ref Investigator's Brochure (IB) version 5.0; cited from earlier work
[6] = system: MD V 4-11 xenograft; set-up: method as in Investigator's Brochure (IB) version 5.0; settings: ref Investigator's Brochure (IB) version 5.0, cited from earlier work
[7] = biological target: Flt1; set-up: method as in Investigator's Brochure (IB) version 5.0; settings: ref Investigator's Brochure (IB) version 5.0; cited from earlier work
[8] = system: Hoxa9/Meis1 leukemia; set-up: method as in Ben-Batalla et al., 2013; settings: ref Ben-Batalla et al., 2013; cited from earlier work
[9] = system: healthy male subjects; set-up: method as in Protocol BGBC001; settings: ref Protocol BGBC001; cited from earlier work
[10] = system: hERG channel; set-up: method as in Investigator's Brochure (IB) version 5.0; settings: ref Investigator's Brochure (IB) version 5.0; cited from earlier work
[11] = set-up: method as in Protocol BGBC001; settings: ref Protocol BGBC001, cited from earlier work
[12] = system: Flt1; set-up: method as in Investigator's Brochure (IB) version 5.0; settings: ref Investigator's Brochure (IB) version 5.0; cited from earlier work; remark: listed apart in the source

In the case of Nc1nc(Nc2ccc3c(c2)CC[C@@H](N2CCCC2)CC3)nn1-c1cc2c(nn1)-c1ccccc1CCC2 [Bemcentinib], the “Ames bacterial mutation assay result” value [1] is listed as “negative”, the Kd [2] is listed as 810 nM and the “Grade 4 or Grade 5 QTcF prolongation events” value ([3]; DE and LDAC cohorts) is listed as “No patients”. For the same molecule, the “No. of QTcF prolonged events: Grade 5” value ([3]; Dose Escalation Cohort Overall (N=36)) was 0, the “No. of QTcF prolonged events: Grade 1” value ([3]; human, in vivo) was 8 and the “No. of QTcF prolonged events: Grade 2” value ([3]; human, in vivo) was 7. The “No. of QTcF prolonged events: Grade 3” value ([3]; human, in vivo) was 5, the “No. of QTcF prolonged events: Grade 4” value ([3]; human, in vivo) was 0 and the “Patients with only Grade 1 or Grade 2 QTcF prolongation / patients with QTcF prolongation” value ([3]; human, in vivo) was 5/9. The “Patients with Grade 3 QTcF prolongation” value ([3]; in vivo) was “Four”, the “mEFS (95% CI)” value ([4]; DE 200/100 mg, N=4) was 4.4 (0.5-NA) months and the “mOS (95% CI)” value ([4]; DE 200/100 mg, N=4) was 5.9 (4.4-NA) months. For the same molecule, the “mEFS (95% CI)” value ([4]; DE 400/100 mg, N=6) was 5.3 (2.6-NA) months, the “mOS (95% CI)” value ([4]; DE 400/100 mg, N=6) was 19 (2.6-NA) months and the “mEFS (95% CI)” value ([4]; DE 400/200 mg, N=7) was 1.6 (0.7-NA) months. The “mOS (95% CI)” value ([4]; DE 400/200 mg, N=7) was 8.6 (0.8-NA) months, the “mEFS (95% CI)” value ([4]; DE 600/200 mg, N=14) was 1.2 (0.7-2.1) months and the “mOS (95% CI)” value ([4]; DE 600/200 mg, N=14) was 2.5 (1.1-NA) months. The “mOS (95% CI)” value ([4]; DE 900/300 mg, N=5) was 6.9 (NA-NA) months, the “mEFS (95% CI)” value ([4]; DE overall, N=36) was 2.1 (1.4-2.8) months and the “mOS (95% CI)” value ([4]; DE overall, N=36) was 5.3 (2.6-9.1) months. The Kd [5] was 270 nM, the “Reduction in tumor burden” value ([6]; oral treatment) was “dose-dependent” and the “Axl and ERK phosphorylation levels” value [6] was “dose-dependent reduction”. For the same molecule, the Kd [7] was 400 nM, the Survival [8] was “prolong” and the “Maximum QTcF recorded (severity)” value [9] was “Grade I”. For the same molecule, the IC50 [10] was 530 nM, the t1/2 ([11]; single oral dose, healthy subjects) was over 24 h and the “Estimated increase in exposure with food in some subjects” value ([11]; whole milk and buttered toast) was “up to two”. For the same molecule, the IC50 [12] was over 1000 nM.
